{"source": "patent US20150374666A1", "about": "“AQUEOUS LIQUID COMPOSITION INCLUDING HIGH CONCENTRATION OF L-HISTIDINE” (AJINOMOTO CO., INC., priority 2013, published 2015)", "experiment": "solubility of histidine added to acidic aqueous solution, left standing at room temperature for 24 hr", "type": "physicochemical", "protocol": "Acidic substances (acetic acid, phosphoric acid, citric acid, malic acid, or tartaric acid) in the amounts indicated in Table 1 were added to and dissolved in water at 80 to 100° C. to prepare acidic aqueous solutions. Then, to the prepared acidic aqueous solutions was added histidine (HIS) in the amounts indicated in Table 1, and the mixtures were thoroughly stirred. The mixtures were left standing at room temperature for 24 hr, and the solubility of histidine was examined.\nAcidic substances (citric acid, malic acid or tartaric acid) in the amounts indicated in Table 2 were added to and dissolved in water at 80 to 100° C. to prepare acidic aqueous solutions. Then, to the prepared acidic aqueous solutions was added histidine (HIS) in the amounts indicated in Table 2 to a concentration of not less than 45 wt %, and the mixtures were thoroughly stirred. The mixtures were left standing at room temperature for 24 hr, and the solubility of histidine was examined. In Table 2, “-” in the pH column means unmeasurable. In Table 2, the composition with *2 was prepared after preparation of the composition with *1, by reducing the amount of water by evaporation under reduced pressure.\nCitric acid in the amount indicated in Tables 3 to 5 were added to and dissolved in water at 80 to 100° C. to prepare acidic aqueous solutions. Then, to the prepared acidic aqueous solutions was added histidine (HIS) in the amounts indicated in Tables 3 to 5, and the mixtures were thoroughly stirred. The mixtures were left standing at room temperature for 24 hr, and the solubility of histidine was examined. In Table 5, the composition with *2 was prepared after preparation of the composition with *1, by reducing the amount of water by evaporation under reduced pressure.\nAcidic substances (citric acid or malic acid) in the amounts indicated in Table 6 and 7 were added to and dissolved in water at 80 to 100° C. to prepare acidic aqueous solutions. Then, to the prepared acidic aqueous solutions was added histidine in the amounts indicated in Table 6 and 7 to a concentration of 20 wt % or 30 wt %, and the mixtures were thoroughly stirred. The mixtures were left standing at room temperature for 24 hr, and the solubility of histidine was examined.", "data": [{"smiles": "N[C@@H](Cc1c[nH]cn1)C(=O)O", "note": "[HIS, histidine]", "values": [{"measurement": "preparation of liquid composition having a histidine concentration of not less than 47.4 wt %", "setting": "0.56 part by weight of citric acid or malic acid per 1 part by weight of histidine", "result": "could not be prepared"}, {"measurement": "solubility", "setting": "Table 1: citric acid 60 g, water 50 g, His 90 g, acidic substance/HIS 0.67 W/W, pH before His addition 0.40, HIS concentration 45.0 % (W/W) in liquid, room temperature 24 hr", "result": "∘"}, {"measurement": "solubility", "setting": "Table 1: citric acid 65 g, water 50 g, His 100 g, acidic substance/HIS 0.65 W/W, pH before His addition 0.30, HIS concentration 46.5 % (W/W) in liquid, room temperature 24 hr", "result": "∘"}, {"measurement": "solubility", "setting": "Table 1: citric acid 80 g, water 50 g, His 120 g, acidic substance/HIS 0.67 W/W, pH before His addition 0.10, HIS concentration 48.0 % (W/W) in liquid, room temperature 24 hr", "result": "∘"}, {"measurement": "solubility", "setting": "Table 1: malic acid 60 g, water 50 g, His 90 g, acidic substance/HIS 0.67 W/W, pH before His addition 0.40, HIS concentration 45.0 % (W/W) in liquid, room temperature 24 hr", "result": "∘"}, {"measurement": "solubility", "setting": "Table 1: tartaric acid 60 g, water 50 g, His 90 g, acidic substance/HIS 0.67 W/W, pH before His addition 0.20, HIS concentration 45.0 % (W/W) in liquid, room temperature 24 hr", "result": "∘"}, {"measurement": "solubility", "setting": "Table 2 (*1): citric acid 60 g, water 50 g, His 90 g, acidic substance/HIS 0.67 W/W, pH before His addition 0.40, HIS concentration 45.0 % (W/W) in liquid, room temperature 24 hr", "result": "∘"}, {"measurement": "solubility", "setting": "Table 2 (*2, water reduced by evaporation under reduced pressure from *1): citric acid 60 g, water 10 g, His 90 g, acidic substance/HIS 0.67 W/W, HIS concentration 56.3 % (W/W) in liquid", "result": "∘"}, {"measurement": "solubility", "setting": "Table 2 (*2, water reduced by evaporation under reduced pressure from *1): citric acid 60 g, water 20 g, His 90 g, acidic substance/HIS 0.67 W/W, HIS concentration 52.9 % (W/W) in liquid", "result": "∘"}, {"measurement": "solubility", "setting": "Table 2: citric acid 65 g, water 50 g, His 100 g, acidic substance/HIS 0.65 W/W, pH before His addition 0.30, HIS concentration 46.5 % (W/W) in liquid, room temperature 24 hr", "result": "∘"}, {"measurement": "solubility", "setting": "Table 2: citric acid 80 g, water 50 g, His 120 g, acidic substance/HIS 0.67 W/W, pH before His addition 0.10, HIS concentration 48.0 % (W/W) in liquid, room temperature 24 hr", "result": "∘"}, {"measurement": "solubility", "setting": "Table 2: citric acid 120 g, water 50 g, His 180 g, acidic substance/HIS 0.67 W/W, HIS concentration 51.4 % (W/W) in liquid, room temperature 24 hr", "result": "∘"}, {"measurement": "solubility", "setting": "Table 2: malic acid 60 g, water 50 g, His 90 g, acidic substance/HIS 0.67 W/W, pH before His addition 0.40, HIS concentration 45.0 % (W/W) in liquid, room temperature 24 hr", "result": "∘"}, {"measurement": "solubility", "setting": "Table 2: malic acid 70 g, water 50 g, His 100 g, acidic substance/HIS 0.70 W/W, HIS concentration 45.5 % (W/W) in liquid, room temperature 24 hr", "result": "∘"}, {"measurement": "solubility", "setting": "Table 2: tartaric acid 60 g, water 50 g, His 90 g, acidic substance/HIS 0.67 W/W, pH before His addition 0.20, HIS concentration 45.0 % (W/W) in liquid, room temperature 24 hr", "result": "∘"}, {"measurement": "solubility", "setting": "Table 2: tartaric acid 60 g, water 50 g, His 100 g, acidic substance/HIS 0.60 W/W, pH before His addition 0.20, HIS concentration 47.6 % (W/W) in liquid, room temperature 24 hr", "result": "∘"}, {"measurement": "solubility of histidine", "setting": "Table 3: amount of histidine added to acidic aqueous solution (water 50 g, citric acid 60 g) reduced", "result": "fine"}, {"measurement": "solubility", "setting": "Table 3: citric acid 60 g, water 50 g, His 30 g, acidic substance/HIS 2.00 W/W, HIS concentration 21.4 % (W/W) in liquid, room temperature 24 hr", "result": "◯"}, {"measurement": "solubility", "setting": "Table 3: citric acid 60 g, water 50 g, His 50 g, acidic substance/HIS 1.20 W/W, HIS concentration 31.3 % (W/W) in liquid, room temperature 24 hr", "result": "◯"}, {"measurement": "solubility", "setting": "Table 3: citric acid 60 g, water 50 g, His 70 g, acidic substance/HIS 0.86 W/W, HIS concentration 38.9 % (W/W) in liquid, room temperature 24 hr", "result": "◯"}, {"measurement": "solubility", "setting": "Table 3: citric acid 60 g, water 50 g, His 90 g, acidic substance/HIS 0.67 W/W, HIS concentration 45.0 % (W/W) in liquid, room temperature 24 hr", "result": "◯"}, {"measurement": "solubility", "setting": "Table 4: citric acid 20.0 g, water 50 g, His 30 g, acidic substance/HIS 0.67 W/W, HIS concentration 30.0 % (W/W) in liquid, room temperature 24 hr", "result": "◯"}, {"measurement": "solubility", "setting": "Table 4: citric acid 33.3 g, water 50 g, His 50 g, acidic substance/HIS 0.67 W/W, HIS concentration 37.5 % (W/W) in liquid, room temperature 24 hr", "result": "◯"}, {"measurement": "solubility", "setting": "Table 4: citric acid 46.7 g, water 50 g, His 70 g, acidic substance/HIS 0.67 W/W, HIS concentration 42.0 % (W/W) in liquid, room temperature 24 hr", "result": "◯"}, {"measurement": "solubility", "setting": "Table 4: citric acid 60 g, water 50 g, His 90 g, acidic substance/HIS 0.67 W/W, HIS concentration 45.0 % (W/W) in liquid, room temperature 24 hr", "result": "◯"}, {"measurement": "solubility of histidine", "setting": "Table 4: histidine and acidic substance reduced at constant ratio, acidic substance/HIS=0.67 (w/w)", "result": "fine"}, {"measurement": "solubility", "setting": "Table 5 (*1): citric acid 60 g, water 27.8 g, His 50 g, acidic substance/HIS 1.20 W/W, HIS concentration 36.3 % (W/W) in liquid, HIS content 180 % (W/W) to water, room temperature 24 hr", "result": "◯"}, {"measurement": "solubility", "setting": "Table 5 (*2): citric acid 60 g, water 16.7 g, His 30 g, acidic substance/HIS 2.00 W/W, HIS concentration 28.1 % (W/W) in liquid, HIS content 180 % (W/W) to water", "result": "◯"}, {"measurement": "solubility", "setting": "Table 5: citric acid 60 g, water 38.9 g, His 70 g, acidic substance/HIS 0.86 W/W, HIS concentration 41.4 % (W/W) in liquid, HIS content 180 % (W/W) to water, room temperature 24 hr", "result": "◯"}, {"measurement": "solubility", "setting": "Table 5: citric acid 60 g, water 50 g, His 90 g, acidic substance/HIS 0.67 W/W, HIS concentration 45.0 % (W/W) in liquid, HIS content 180 % (W/W) to water, room temperature 24 hr", "result": "◯"}, {"measurement": "solubility of histidine", "setting": "Table 5: histidine and water reduced at constant ratio, histidine content to water=180% (w/w)", "result": "fine"}, {"measurement": "solubility", "setting": "Table 6: citric acid 2.7 g, water 37.3 g, His 10 g, acidic substance/HIS 0.27 W/W, HIS concentration 20.0 % (W/W) in liquid, room temperature 24 hr", "result": "∘"}, {"measurement": "solubility", "setting": "Table 6: citric acid 3.7 g, water 36.3 g, His 10 g, acidic substance/HIS 0.37 W/W, HIS concentration 20.0 % (W/W) in liquid, room temperature 24 hr", "result": "∘"}, {"measurement": "solubility", "setting": "Table 6: citric acid 4.7 g, water 35.3 g, His 10 g, acidic substance/HIS 0.47 W/W, HIS concentration 20.0 % (W/W) in liquid, room temperature 24 hr", "result": "∘"}, {"measurement": "solubility", "setting": "Table 6: citric acid 5.7 g, water 34.3 g, His 10 g, acidic substance/HIS 0.57 W/W, HIS concentration 20.0 % (W/W) in liquid, room temperature 24 hr", "result": "∘"}, {"measurement": "solubility", "setting": "Table 6: citric acid 6.7 g, water 33.3 g, His 10 g, acidic substance/HIS 0.67 W/W, HIS concentration 20.0 % (W/W) in liquid, room temperature 24 hr", "result": "∘"}, {"measurement": "solubility", "setting": "Table 6: malic acid 2.7 g, water 37.3 g, His 10 g, acidic substance/HIS 0.27 W/W, HIS concentration 20.0 % (W/W) in liquid, room temperature 24 hr", "result": "∘"}, {"measurement": "solubility", "setting": "Table 7: citric acid 6.0 g, water 29.0 g, His 15 g, acidic substance/HIS 0.40 W/W, HIS concentration 30.0 % (W/W) in liquid, room temperature 24 hr", "result": "∘"}, {"measurement": "solubility", "setting": "Table 7: citric acid 7.0 g, water 28.0 g, His 15 g, acidic substance/HIS 0.47 W/W, HIS concentration 30.0 % (W/W) in liquid, room temperature 24 hr", "result": "∘"}, {"measurement": "solubility", "setting": "Table 7: citric acid 8.0 g, water 27.0 g, His 15 g, acidic substance/HIS 0.53 W/W, HIS concentration 30.0 % (W/W) in liquid, room temperature 24 hr", "result": "∘"}, {"measurement": "solubility", "setting": "Table 7: citric acid 9.0 g, water 26.0 g, His 15 g, acidic substance/HIS 0.60 W/W, HIS concentration 30.0 % (W/W) in liquid, room temperature 24 hr", "result": "∘"}, {"measurement": "solubility", "setting": "Table 7: citric acid 10.0 g, water 25.0 g, His 15 g, acidic substance/HIS 0.67 W/W, HIS concentration 30.0 % (W/W) in liquid, room temperature 24 hr", "result": "∘"}, {"measurement": "solubility", "setting": "Table 7: malic acid 6.0 g, water 29.0 g, His 15 g, acidic substance/HIS 0.40 W/W, HIS concentration 30.0 % (W/W) in liquid, room temperature 24 hr", "result": "∘"}, {"measurement": "solubility of histidine", "setting": "acetic acid or phosphoric acid as acidic substance, acidic aqueous solution pH of not more than 1.0, room temperature 24 hr", "result": "not dissolved or, even when dissolved, precipitated"}, {"measurement": "solubility of histidine", "setting": "citric acid, malic acid or tartaric acid as acidic substance, pH of not more than 1.0, amount corresponding to concentration of not less than 45 wt %", "result": "finely dissolved"}, {"measurement": "solubility of histidine", "setting": "histidine 20 wt %, 0.17 part by weight of acidic substance per 1 part by weight of histidine", "result": "not dissolved"}, {"measurement": "solubility of histidine", "setting": "histidine 20 wt %, not less than 0.27 part by weight of acidic substance per 1 part by weight of histidine", "result": "fine"}, {"measurement": "solubility of histidine", "setting": "histidine 30 wt %, 0.33 part by weight of acidic substance per 1 part by weight of histidine", "result": "not dissolved"}, {"measurement": "solubility of histidine", "setting": "histidine 30 wt %, not less than 0.40 part by weight of acidic substance per 1 part by weight of histidine", "result": "fine"}, {"measurement": "histidine concentration of liquid composition that could be prepared", "setting": "not less than 0.65 part by weight of citric acid, not less than 0.67 of malic acid, or not less than 0.60 of tartaric acid per 1 part by weight of histidine", "result": "not less than 45 wt %"}]}]}
